Test results taken from patent US10947252B2, “Inhibitors of KEAP1-Nrf2 protein-protein interaction” (Janssen Pharmaceutica NV, priority 2018, dated 2021).

Tests used:
[1] = system: Glo-Response ARE-luc2P HEK293 cell line; assay: ARE luciferase reporter cell-based assay; conditions: Homo sapiens, HEK293, 24 h, average of results obtained;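 also: luciferase signal tracks Nrf2 activation of the ARE once compounds disrupt KEAP1-Nrf2 binding, read with One-Glo reagent, DMSO serving as low control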
[2] = biological target: Kelch domain of human KEAP1 (321-624 aa) (Homo sapiens (Human), UniProt Q14145); assay: KEAP1 KELCH ThermoFluor binding assay; conditions: KEAP Kelch […], 1,8-ANS, pH 7.0, average of results obtained, read-out: Tf Kd;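 also: Ligand-induced melting temperature shift of E. coli-expressed KEAP1 Kelch protein, Kd estimated from concentration-response curves of ΔTm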
Sequence of Kelch domain of human KEAP1 (321-624 aa) (Q14145 321-624): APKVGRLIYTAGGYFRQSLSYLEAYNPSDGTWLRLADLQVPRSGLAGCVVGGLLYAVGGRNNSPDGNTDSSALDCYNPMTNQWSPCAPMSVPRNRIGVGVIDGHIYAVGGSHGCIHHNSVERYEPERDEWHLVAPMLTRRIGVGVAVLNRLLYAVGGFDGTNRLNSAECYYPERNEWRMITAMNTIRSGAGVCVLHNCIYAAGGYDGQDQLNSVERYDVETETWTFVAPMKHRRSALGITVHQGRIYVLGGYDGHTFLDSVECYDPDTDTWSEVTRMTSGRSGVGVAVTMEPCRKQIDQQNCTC

| SMILES | Kd [2] [nM] | EC50 [1] [nM] |
| --- | --- | --- |
| Cc1cnc2c(c1)S(=O)(=O)N(Cc1cc([C@@H](c3ccc4c(nnn4C4CC4)c3C)C(C)(C)C(=O)O)cnc1C)CC1(CCOCC1)O2 (single isomer, unassigned) [Example 229, (*R)-3-(1-Cyclopropyl-4-methyl-1H-benzo[d][1,2,3]triazol-5-yl)-2,2-dimethyl-3-(6-methyl-5-((8′-methyl-1′,1′-dioxido-2,3,5,6-tetrahydrospiro[pyran-4,4′-pyrido[2,3-b][1,4,5]oxathiazepin]-2′(3′H)-yl)methyl)pyridin-3-yl)propanoic Acid] | 17000 | 2430 |
| CCn1nnc2c(C)c([C@H](CC(=O)O)c3ccc(C)c(CN4CC5(COC5)Oc5ccccc5S4(=O)=O)n3)ccc21 (single isomer, unassigned) [Example 238, (*S)-3-(6-((1,1-Dioxidospiro[benzo[b][1,4,5]oxathiazepine-4,3′-oxetan]-2(3H)-yl)methyl)-5-methylpyridin-2-yl)-3-(1-ethyl-4-methyl-1H-benzo[d][1,2,3]triazol-5-yl)propanoic Acid] | < 1 | 9.7 |
| CCn1nnc2c(C)c([C@@H](CC(=O)O)c3ccc(C)c(CN4CC5(COC5)Oc5ccccc5S4(=O)=O)n3)ccc21 (single isomer, unassigned) [Example 239, (*R)-3-(6-((1,1-Dioxidospiro[benzo[b][1,4,5]oxathiazepine-4,3′-oxetan]-2(3H)-yl)methyl)-5-methylpyridin-2-yl)-3-(1-ethyl-4-methyl-1H-benzo[d][1,2,3]triazol-5-yl)propanoic Acid] | 1.9 | 44 |
| CCn1nnc2c(C)c([C@H](CC(=O)O)c3ccc(C)c(CN4CC5(COC5)Oc5ncccc5S4(=O)=O)n3)ccc21 (single isomer, unassigned) [Example 241, (*S)-3-(6-((1′,1′-Dioxidospiro[oxetane-3,4′-pyrido[2,3-b][1,4,5]oxathiazepin]-2′(3′H)-yl)methyl)-5-methylpyridin-2-yl)-3-(1-ethyl-4-methyl-1H-benzo[d][1,2,3]triazol-5-yl)propanoic Acid] | < 1 | 28 |
| CCn1nnc2c(C)c([C@@H](CC(=O)O)c3ccc(C)c(CN4CC5(COC5)Oc5ncccc5S4(=O)=O)n3)ccc21 (single isomer, unassigned) [Example 242, (*R)-3-(6-((1′,1′-Dioxidospiro[oxetane-3,4′-pyrido[2,3-b][1,4,5]oxathiazepin]-2′(3′H)-yl)methyl)-5-methylpyridin-2-yl)-3-(1-ethyl-4-methyl-1H-benzo[d][1,2,3]triazol-5-yl)propanoic Acid] | 1.8 | 110 |
| CCn1nnc2c(C)c([C@H](CC(=O)O)c3ccc(C)c(CN4CC5(CC5)Oc5ncccc5S4(=O)=O)n3)ccc21 (single isomer, unassigned) [Example 244, (*S)-3-(6-((1′,1′-Dioxidospiro[cyclopropane-1,4′-pyrido[2,3-b][1,4,5]oxathiazepin]-2′(3′H)-yl)methyl)-5-methylpyridin-2-yl)-3-(1-ethyl-4-methyl-1H-benzo[d][1,2,3]triazol-5-yl)propanoic Acid] | < 1 | 35 |
| CCn1nnc2c(C)c([C@@H](CC(=O)O)c3ccc(C)c(CN4CC5(CC5)Oc5ncccc5S4(=O)=O)n3)ccc21 (single isomer, unassigned) [Example 245, (*R)-3-(6-((1′,1′-Dioxidospiro[cyclopropane-1,4′-pyrido[2,3-b][1,4,5]oxathiazepin]-2′(3′H)-yl)methyl)-5-methylpyridin-2-yl)-3-(1-ethyl-4-methyl-1H-benzo[d][1,2,3]triazol-5-yl)propanoic Acid] | < 1 | 140 |
| Cc1ccc([C@@H](CC(=O)O)c2cc(OC(F)F)c3c(c2)nnn3C)cc1CN1C[C@H]2CCCN2c2ncccc2S1(=O)=O (single isomer, unassigned) [Example 248, (*R)-3-(7-(Difluoromethoxy)-1-methyl-1H-benzo[d][1,2,3]triazol-5-yl)-3-(3-(((R)-5,5-dioxido-7a,8,9,10-tetrahydropyrido[2,3-f]pyrrolo[2,1-d][1,2,5]thiadiazepin-6(7H)-yl)methyl)-4-methylphenyl)propanoic Acid] | < 1 | 48.6 |
| CC[C@@H]1CN(Cc2cc([C@H](CC(=O)O)c3cc(OC(F)F)c4c(c3)nnn4C)ccc2C)S(=O)(=O)c2cccnc2O1 (single isomer, unassigned) [Example 250, (*S)-3-(7-(Difluoromethoxy)-1-methyl-1H-benzo[d][1,2,3]triazol-5-yl)-3-(3-(((R)-4-ethyl-1,1-dioxido-3,4-dihydro-2H-pyrido[2,3-b][1,4,5]oxathiazepin-2-yl)methyl)-4-methylphenyl)propanoic Acid] | < 1 | 32.8 |
| CC[C@@H]1CN(Cc2cc([C@@H](CC(=O)O)c3cc(OC(F)F)c4c(c3)nnn4C)ccc2C)S(=O)(=O)c2cccnc2O1 (single isomer, unassigned) [Example 251, (*R)-3-(7-(Difluoromethoxy)-1-methyl-1H-benzo[d][1,2,3]triazol-5-yl)-3-(3-(((R)-4-ethyl-1,1-dioxido-3,4-dihydro-2H-pyrido[2,3-b][1,4,5]oxathiazepin-2-yl)methyl)-4-methylphenyl)propanoic Acid] | < 1 | 24.1 |
| Cc1ccc([C@H](CC(=O)O)c2ccn3c(C(F)(F)F)nnc3c2)cc1CN1C[C@@H]2CCCN2c2ncccc2S1(=O)=O (single isomer, unassigned) [Example 254, (*S)-3-(3-(((S)-5,5-Dioxido-7a,8,9,10-tetrahydropyrido[2,3-f]pyrrolo[2,1-d][1,2,5]thiadiazepin-6(7H)-yl)methyl)-4-methylphenyl)-3-(3-(trifluoromethyl)-[1,2,4]triazolo[4,3-a]pyridin-7-yl)propanoic Acid] | < 1 | 3400 |
| Cc1ccc([C@@H](CC(=O)O)c2ccn3c(C(F)(F)F)nnc3c2)cc1CN1C[C@@H]2CCCN2c2ncccc2S1(=O)=O (single isomer, unassigned) [Example 255, (*R)-3-(3-(((S)-5,5-Dioxido-7a,8,9,10-tetrahydropyrido[2,3-f]pyrrolo[2,1-d][1,2,5]thiadiazepin-6(7H)-yl)methyl)-4-methylphenyl)-3-(3-(trifluoromethyl)-[1,2,4]triazolo[4,3-a]pyridin-7-yl)propanoic Acid] | < 1 | 922 |

Second part, led by results:

| Kd [2] [nM] | SMILES | EC50 [1] [nM] |
| --- | --- | --- |
| < 1 | Cc1cnc2c(c1)S(=O)(=O)N(Cc1cc([C@H](c3ccc4c(nnn4C4CC4)c3C)C(C)(C)C(=O)O)cnc1C)CC1(CCOCC1)O2 (single isomer, unassigned) [Example 228, (*S)-3-(1-Cyclopropyl-4-methyl-1H-benzo[d][1,2,3]triazol-5-yl)-2,2-dimethyl-3-(6-methyl-5-((8′-methyl-1′,1′-dioxido-2,3,5,6-tetrahydrospiro[pyran-4,4′-pyrido[2,3-b][1,4,5]oxathiazepin]-2′(3′H)-yl)methyl)pyridin-3-yl)propanoic Acid] | 10 |
| < 1 | Cc1ccc([C@H](CC(=O)O)c2ccn3c(C4CC4)nnc3c2C)cc1CN1CC2(CC2)Oc2ncc(F)cc2S1(=O)=O (single isomer, unassigned) [Example 230, (*S)-3-(3-Cyclopropyl-8-methyl-[1,2,4]triazolo[4,3-a]pyridin-7-yl)-3-(3-((8′-fluoro-1′,1′-dioxidospiro[cyclopropane-1,4′-pyrido[2,3-b][1,4,5]oxathiazepin]-2′(3′H)-yl)methyl)-4-methylphenyl)propanoic Acid] | 480 |
| < 1 | Cc1ccc([C@H](CC(=O)O)c2ccc3c(nnn3CC3CC3)c2C)cc1CN1C[C@@H]2CCCCN2c2ncccc2S1(=O)=O (single isomer, unassigned) [Example 232, (*S)-3-(1-(Cyclopropylmethyl)-4-methyl-1H-benzo[d][1,2,3]triazol-5-yl)-3-(3-(((*S)-5,5-dioxido-7,7a,8,9,10,11-hexahydro-6H-dipyrido[2,1-d:2′,3′-f][1,2,5]thiadiazepin-6-yl)methyl)-4-methylphenyl)propanoic Acid] | 2.6 |
| < 1 | Cc1ccc([C@@H](CC(=O)O)c2ccc3c(nnn3CC3CC3)c2C)cc1CN1C[C@@H]2CCCCN2c2ncccc2S1(=O)=O (single isomer, unassigned) [Example 233, (*R)-3-(1-(Cyclopropylmethyl)-4-methyl-1H-benzo[d][1,2,3]triazol-5-yl)-3-(3-(((*S)-5,5-dioxido-7,7a,8,9,10,11-hexahydro-6H-dipyrido[2,1-d:2′,3′-f][1,2,5]thiadiazepin-6-yl)methyl)-4-methylphenyl)propanoic Acid] | 80 |
| < 1 | Cc1ccc([C@@H](CC(=O)O)c2ccc3c(nnn3CC3CC3)c2C)cc1CN1C[C@H]2CCCCN2c2ncccc2S1(=O)=O (single isomer, unassigned) [Example 235, (*R)-3-(1-(Cyclopropylmethyl)-4-methyl-1H-benzo[d][1,2,3]triazol-5-yl)-3-(3-(((*R)-5,5-dioxido-7,7a,8,9,10,11-hexahydro-6H-dipyrido[2,1-d:2′,3′-f][1,2,5]thiadiazepin-6-yl)methyl)-4-methylphenyl)propanoic Acid] | 1.9 |
| < 1 | Cc1ccc([C@H](CC(=O)O)c2ccc3c(nnn3CC3CC3)c2C)cc1CN1C[C@H]2CCCCN2c2ncccc2S1(=O)=O (single isomer, unassigned) [Example 236, (*S)-3-(1-(Cyclopropylmethyl)-4-methyl-1H-benzo[d][1,2,3]triazol-5-yl)-3-(3-(((*R)-5,5-dioxido-7,7a,8,9,10,11-hexahydro-6H-dipyrido[2,1-d:2′,3′-f][1,2,5]thiadiazepin-6-yl)methyl)-4-methylphenyl)propanoic Acid] | 6.8 |
